PMC6438731, “Extrasynaptic δ‐GABAA receptors are high‐affinity muscimol receptors” (Journal of Neurochemistry, 2019)
Several values for one entry are separate records, joined by “and”; a condition that tells them apart may be missing. Equal values may be shown once.

Key:
[1] = target: native δ‐GABAARs in the forebrain (WT‐δKO, predominantly α4βδ) (Mus musculus, UniProt P63137+Q9D6F4); test: [^3H]muscimol binding kinetics, forebrain WT‐δKO (subtracted); settings: 22°C
Protocol: (§1) WT and δKO forebrain and cerebellar membranes were prepared using a modification of the method of Squires and Saederup (2000) essentially as described by Uusi‐Oukari et al. (2014). […] forebrain along with midbrain region was homogenized into 10 mM Tris‐HCl, pH 8.0 buffer containing 2 mM EDTA, using an Ultra‐Turrax T25 (Janke & Kunkel IKA labortechnik) for 20 s at 9500 rpm. The homogenates were centrifuged at 20 000 g for 10 min at +4°C and the resulting pellets were washed three times by resuspension and re‐centrifugation with 10 mM Tris‐HCl, pH 8.5 buffer containing 0.2 M NaCl, and 5 mM EDTA. The resulting pellets were then suspended in ice‐cold H2O and centrifuged. The pellets were again washed three times with Tris, pH 8.5/NaCl/EDTA as described above. The resulting pellets were finally suspended in assay buffer consisting of 50 mM Tris‐base, pH adjusted to 7.4 with citric acid, and frozen at −70°C. Before a binding experiment, the suspension was thawed, centrifuged, and suspended in assay buffer.
(§2) The binding of [^3H]muscimol (5 nM) was measured in assay buffer at 22°C in a total volume of 300 μL. Triplicate technical replicates of mouse forebrain (190–215 μg protein), cerebellar (180–210 μg protein) or HEK cell (92–132 μg protein) membranes for each time point were incubated with shaking for various times (15 s–15 min) to measure association of the binding. […] Air‐dried filters were immersed in 3 mL of Optiphase HiSafe 3 scintillation fluid (Wallac, Turku, Finland) and radioactivity determined in a Wallac model 1410 liquid scintillation counter (Wallac, Turku, Finland). […]
The tubes were mixed and incubations at 22°C were terminated at various time points (30 s – 30 min) as described above. Dissociation of [^3H]muscimol from recombinant receptors in HEK cell membranes was also measured at 0–4°C (on ice) to evaluate how fast [^3H]muscimol dissociates from receptors while washing the filter with ice‐cold assay buffer during filtration. […]

[2] = target: cerebellar membranes of δKO mice; test: Saturation analysis of [^3H]muscimol binding, δKO cerebellar membranes; set-up: species or system mouse; settings: 0°C
Protocol: as §1
(§3) Saturation analysis of [^3H]muscimol to WT and δKO mouse forebrain and cerebellar membranes was performed essentially as described by Uusi‐Oukari and Korpi (1989). […] The incubations were terminated as described above.

[3] = target: T1, α6β2 recombinant GABAA receptor (Rattus norvegicus, UniProt P30191+P63138); test: [^3H]muscimol binding kinetics, recombinant α6β2 in HEK293 membranes; settings: room temperature (22°C)
T1 construct: expressed in transfected cells; host or cells: HEK293 (ATCC CRL-1573), pRK5 plasmids, membranes
Source text: (§4) Human embryonic kidney (HEK) 293 cells (ATCC Cat# CRL‐1573; RRID: CVCL_0045; a commonly misidentified cell line by ICLAC; last authenticated by STR DNA profiling in December 2018) were transfected with rat cDNAs (α1, L08490; α6, L08495; β2, X15467; β3, X15468; γ2S, L08497; δ, L08496) in pRK5 plasmids under the control of the cytomegalovirus promoter (Uusi‐Oukari et al. 2000), using the calcium phosphate precipitation method essentially as described (Lüddens and Korpi 1997). The plasmids were used in 1 : 1 and 1 : 1 : 1 ratios for transfections containing 2 [(α1 or α6) + (β2 or β3)] or 3 [(α1 or α6) + (β2 or β3) + (γ2S or δ)] different subunits, respectively (5 μg of each plasmid DNA for a 10 cm plate). […]
(§5) The binding of [^3H]muscimol (5 nM) was measured in assay buffer at 22°C in a total volume of 300 μL. […] Air‐dried filters were immersed in 3 mL of Optiphase HiSafe 3 scintillation fluid (Wallac, Turku, Finland) and radioactivity determined in a Wallac model 1410 liquid scintillation counter (Wallac, Turku, Finland). […]
(§6) The tubes were mixed and incubations at 22°C were terminated at various time points (30 s – 30 min) as described above. Dissociation of [^3H]muscimol from recombinant receptors in HEK cell membranes was also measured at 0–4°C (on ice) to evaluate how fast [^3H]muscimol dissociates from receptors while washing the filter with ice‐cold assay buffer during filtration.

[4] = target: T2, α6β3δ recombinant GABAA receptor (Rattus norvegicus, UniProt P30191+P63079); test: [^3H]muscimol binding kinetics, recombinant α6β3δ in HEK293 membranes
T2 construct: expressed in transfected cells; host or cells: HEK293 (ATCC CRL-1573), pRK5 plasmids, membranes
Source text: Human embryonic kidney (HEK) 293 cells (ATCC Cat# CRL‐1573; RRID: CVCL_0045; a commonly misidentified cell line by ICLAC; last authenticated by STR DNA profiling in December 2018) were transfected with rat cDNAs (α1, L08490; α6, L08495; β2, X15467; β3, X15468; γ2S, L08497; δ, L08496) in pRK5 plasmids under the control of the cytomegalovirus promoter (Uusi‐Oukari et al. 2000), using the calcium phosphate precipitation method essentially as described (Lüddens and Korpi 1997). The plasmids were used in 1 : 1 and 1 : 1 : 1 ratios for transfections containing 2 [(α1 or α6) + (β2 or β3)] or 3 [(α1 or α6) + (β2 or β3) + (γ2S or δ)] different subunits, respectively (5 μg of each plasmid DNA for a 10 cm plate). Mock transfection was done using 5 μg pRK5 plasmid backbone. The cells were harvested 48 h after transfection. Culture medium was removed and the cells were detached from the plates by pipetting in ice‐cold assay buffer containing 2 mM EDTA. The cells were homogenized (Ultra Turrax, 20 s at 9500 rpm), the homogenates centrifuged at 20 000 g for 10 min at +4°C, and washed once with the same buffer. The homogenates were finally suspended in assay buffer (1 mL/plate) and either used directly to binding assays or stored frozen at −70°C.
as §5, §6

[5] = target: T3, α1β2δ recombinant GABAA receptor (Rattus norvegicus, UniProt P62813+P63138); test: [^3H]muscimol binding kinetics, recombinant α1β2δ in HEK293 membranes; settings: room temperature (22°C)
T3 construct: expressed in transfected cells; host or cells: HEK293 (ATCC CRL-1573), pRK5 plasmids, membranes
Source text: as §4
The binding of [^3H]muscimol (5 nM) was measured in assay buffer at 22°C in a total volume of 300 μL. […] Air‐dried filters were immersed in 3 mL of Optiphase HiSafe 3 scintillation fluid (Wallac, Turku, Finland) and radioactivity determined in a Wallac model 1410 liquid scintillation counter (Wallac, Turku, Finland).
as §6

[6] = target: cerebellar membranes of WT mice; test: Saturation analysis of [^3H]muscimol binding, WT cerebellar membranes; set-up: species or system mouse; settings: 0°C
Protocol: as §1, §3

[7] = target: cerebellar membranes of δKO mice (non‐δ‐GABAARs); test: [^3H]muscimol binding kinetics, δKO cerebellar membranes; set-up: species or system mouse
Protocol: as §1, §2, §6

[8] = set-up: method as in Maggi and Enna 1979; settings: rat brain, ref Maggi and Enna 1979; cited from earlier work
[9] = forebrain WT‐δKO (native δ‐GABAARs, by subtraction)
[10] = room temperature (22°C), 5 nM [^3H]muscimol

T2 sequence (P30191 20-453): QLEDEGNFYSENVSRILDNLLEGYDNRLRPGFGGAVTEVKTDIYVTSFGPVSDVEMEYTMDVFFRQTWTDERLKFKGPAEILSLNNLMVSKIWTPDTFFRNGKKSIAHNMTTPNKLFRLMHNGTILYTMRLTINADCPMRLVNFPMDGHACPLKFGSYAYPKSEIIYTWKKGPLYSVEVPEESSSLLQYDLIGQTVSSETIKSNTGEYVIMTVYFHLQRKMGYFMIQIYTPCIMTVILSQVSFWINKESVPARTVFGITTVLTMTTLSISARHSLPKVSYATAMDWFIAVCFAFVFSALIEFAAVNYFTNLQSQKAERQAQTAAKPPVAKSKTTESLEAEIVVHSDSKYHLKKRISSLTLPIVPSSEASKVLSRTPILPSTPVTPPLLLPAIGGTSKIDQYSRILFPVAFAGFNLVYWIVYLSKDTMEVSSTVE
T2 sequence (P63079 26-473): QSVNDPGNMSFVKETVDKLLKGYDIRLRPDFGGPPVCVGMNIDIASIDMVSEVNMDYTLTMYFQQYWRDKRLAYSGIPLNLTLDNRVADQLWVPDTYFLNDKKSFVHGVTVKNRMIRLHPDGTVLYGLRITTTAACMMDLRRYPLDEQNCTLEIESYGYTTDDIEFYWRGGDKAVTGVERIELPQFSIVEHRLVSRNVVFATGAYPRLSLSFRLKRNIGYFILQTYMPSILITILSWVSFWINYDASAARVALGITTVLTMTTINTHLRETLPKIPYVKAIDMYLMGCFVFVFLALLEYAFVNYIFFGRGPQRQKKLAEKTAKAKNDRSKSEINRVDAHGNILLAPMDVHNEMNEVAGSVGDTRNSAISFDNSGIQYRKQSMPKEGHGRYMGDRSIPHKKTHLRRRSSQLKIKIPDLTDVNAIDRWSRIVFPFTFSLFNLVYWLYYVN
T2 sequence (P18506 25-449 partner): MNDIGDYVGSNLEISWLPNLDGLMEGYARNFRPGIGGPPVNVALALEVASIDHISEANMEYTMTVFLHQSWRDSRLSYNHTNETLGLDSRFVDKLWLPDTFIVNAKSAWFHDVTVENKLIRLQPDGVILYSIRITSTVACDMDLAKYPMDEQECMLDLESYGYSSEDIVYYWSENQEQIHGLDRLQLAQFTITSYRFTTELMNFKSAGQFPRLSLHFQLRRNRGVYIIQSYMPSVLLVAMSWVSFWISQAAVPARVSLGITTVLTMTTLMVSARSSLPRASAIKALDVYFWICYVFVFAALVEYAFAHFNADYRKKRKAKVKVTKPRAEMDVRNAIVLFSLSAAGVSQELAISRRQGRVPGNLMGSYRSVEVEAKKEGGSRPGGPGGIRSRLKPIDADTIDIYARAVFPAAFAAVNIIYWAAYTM
native δ‐GABAARs in the forebrain (WT‐δKO, predominantly α4βδ), sequence (Q9D6F4 36-552): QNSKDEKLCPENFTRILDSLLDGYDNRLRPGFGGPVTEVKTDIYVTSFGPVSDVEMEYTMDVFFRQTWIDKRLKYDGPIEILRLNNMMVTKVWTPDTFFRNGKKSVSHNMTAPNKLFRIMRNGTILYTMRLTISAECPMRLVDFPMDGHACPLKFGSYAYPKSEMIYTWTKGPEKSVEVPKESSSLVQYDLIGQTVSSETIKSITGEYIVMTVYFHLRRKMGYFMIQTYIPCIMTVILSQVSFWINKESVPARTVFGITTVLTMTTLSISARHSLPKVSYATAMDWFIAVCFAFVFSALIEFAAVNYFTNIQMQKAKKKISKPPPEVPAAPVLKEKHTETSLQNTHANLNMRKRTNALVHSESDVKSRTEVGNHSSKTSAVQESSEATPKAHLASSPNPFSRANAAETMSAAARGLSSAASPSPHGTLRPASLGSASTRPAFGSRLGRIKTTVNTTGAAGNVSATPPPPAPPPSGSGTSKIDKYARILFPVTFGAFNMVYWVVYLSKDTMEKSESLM
native δ‐GABAARs in the forebrain (WT‐δKO, predominantly α4βδ), sequence (P63137 26-512): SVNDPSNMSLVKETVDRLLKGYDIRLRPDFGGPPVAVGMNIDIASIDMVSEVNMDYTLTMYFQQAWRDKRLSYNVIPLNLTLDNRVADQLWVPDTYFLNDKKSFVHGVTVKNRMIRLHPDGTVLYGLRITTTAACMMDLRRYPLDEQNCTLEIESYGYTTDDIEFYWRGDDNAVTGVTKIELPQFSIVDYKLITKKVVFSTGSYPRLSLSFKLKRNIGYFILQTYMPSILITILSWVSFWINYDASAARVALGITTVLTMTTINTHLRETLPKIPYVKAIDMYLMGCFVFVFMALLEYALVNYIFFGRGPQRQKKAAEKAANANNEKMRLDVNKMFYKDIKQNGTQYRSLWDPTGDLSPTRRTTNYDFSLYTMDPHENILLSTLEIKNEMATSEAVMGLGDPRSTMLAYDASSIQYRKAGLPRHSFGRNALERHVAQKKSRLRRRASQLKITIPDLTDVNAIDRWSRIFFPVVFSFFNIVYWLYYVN
native δ‐GABAARs in the forebrain (WT‐δKO, predominantly α4βδ), sequence (P22933 25-449 partner): as the sequence (P18506 25-449 partner) above, with P38A, M149L counted along it
T3 sequence (P62813 28-455): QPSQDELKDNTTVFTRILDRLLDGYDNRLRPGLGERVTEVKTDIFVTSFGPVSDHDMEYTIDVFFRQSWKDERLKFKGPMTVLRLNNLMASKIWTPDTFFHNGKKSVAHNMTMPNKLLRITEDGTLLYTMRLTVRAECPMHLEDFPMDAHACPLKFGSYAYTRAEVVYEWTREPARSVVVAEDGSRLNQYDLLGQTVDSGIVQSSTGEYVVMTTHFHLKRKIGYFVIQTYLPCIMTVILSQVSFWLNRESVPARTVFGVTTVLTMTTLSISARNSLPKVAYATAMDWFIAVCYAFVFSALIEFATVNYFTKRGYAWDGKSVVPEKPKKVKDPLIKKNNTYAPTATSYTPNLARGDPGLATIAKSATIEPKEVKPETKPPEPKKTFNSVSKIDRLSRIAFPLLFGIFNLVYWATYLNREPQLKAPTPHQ
T3 sequence (P63138 26-474): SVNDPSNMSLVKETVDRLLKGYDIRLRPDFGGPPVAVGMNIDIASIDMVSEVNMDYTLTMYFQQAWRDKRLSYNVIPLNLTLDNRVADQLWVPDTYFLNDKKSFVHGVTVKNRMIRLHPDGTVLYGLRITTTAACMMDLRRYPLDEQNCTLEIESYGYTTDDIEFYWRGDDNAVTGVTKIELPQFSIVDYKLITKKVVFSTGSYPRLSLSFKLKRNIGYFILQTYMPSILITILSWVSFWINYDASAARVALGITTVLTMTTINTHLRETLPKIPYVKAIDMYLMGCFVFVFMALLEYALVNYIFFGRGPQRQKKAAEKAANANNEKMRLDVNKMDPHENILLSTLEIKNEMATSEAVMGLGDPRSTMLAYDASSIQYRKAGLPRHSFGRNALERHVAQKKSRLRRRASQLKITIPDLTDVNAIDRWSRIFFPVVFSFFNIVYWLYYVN
T3 sequence (P18506 25-449 partner): as the sequence (P18506 25-449 partner) above
T1 sequence (P30191 20-453): as the sequence (P30191 20-453) above
T1 sequence (P63138 26-474): as the sequence (P63138 26-474) above

NCc1cc(=O)[nH]o1 [[^3H]muscimol] [[Methylene‐^3H]muscimol]
k off [1, 9]: 0.00383 ± 0.00033 s⁻¹
k on [1, 9]: 1.4 ± 0.2 × 10^8 M^−1 × min^−1
Kd ([1]; forebrain WT‐δKO (native δ‐GABAARs, α4βδ), K D = koff/kon): ~1.6 nM and 1.6 nM
Apparent pKD [2]: 8.15 ± 0.02
k off [3]: 1.46 ± 0.05 ^††† min^−1
Kd ([4]; 22°C, K D = koff/kon): 0.72 nM
k off ([4]; room temperature (22°C)): 0.13 ± 0.01 ^### min^−1
k on [4, 10]: 1.8 ± 0.1 × 10^8, ^### M^−1 × min^−1
k off [5]: 0.18 ± 0.03 ^### min^−1
Apparent pKD [6]: 8.34 ± 0.01
Kd ([7]; 22°C, K D = koff/kon): 1.4 nM
k off ([7]; room temperature (22°C)): 1.11 ± 0.09 ^* min^−1
k on [7, 10]: 7.7 ± 0.2 × 10^8 ^** M^−1 × min^−1
fraction of peripherally injected [^3H]muscimol that entered the brain [8]: around 0.02%
